Data reported in patent US20260076974A1, “COMPOSITIONS FOR PREVENTING AND TREATING INFECTION COMPRISING AN ARTIFICIAL SWEETENER” (Brunel University London, priority 2022, published 2026).
Read-outs that look alike come from different tables or passages of the source.

Experiments:
[1] = system: A. baumannii AB5075; settings: […] ace-K (sub-MIC), two hours, compared to untreated control
Protocol: Cultures were incubated at 37° C. and 180 rpm shaking for two hours. Following incubation 10 μL of a 1 mg/mL DAPI solution and 10 μL of a 5 mg/mL solution of Nile Red were added to each flask before returning to the incubator for 30 mins. Once stained, cultures were centrifuged at 5000 rpm for five minutes and the supernatant discarded. Pellets were resuspended in 10 ml of sterile 4% formaldehyde in PBS and incubated in the dark for 30 mins to fix. Once fixed, samples were centrifuged at 5000 rpm and pellets were washed twice with 10 mL sterile PBS. After washing pellets were resuspended in 10 ml of sterile PBS and 10 μL of the cell suspension was spotted onto a glass slide and allowed to air dry in the dark. Three spots were prepared per flask.

[2] = system: A. baumannii; experiment: Crystal violet biofilm formation assay / minimum biofilm inhibition concentration; format: cell-based, Acinetobacter baumannii
Protocol: (§1) Biofilm formation is linked to 80% of hospital-associated infections and is a major factor in the routine failure of antibiotic therapy.
(§2) All samples were exposed to the artificial sweeteners in LB medium for 19 hours before crystal violet biofilm assay was performed. […] The data present the mean of three biological replicates±SD. *p≤0.05, *p≤0.001 versus the bacterial growth in control samples.
(§3) All samples were exposed to artificial sweeteners for 19 hours before crystal violet biofilm assay was performed.

[3] = system: PpilA promoter; settings: 0, […], 0.66% or […] ace-K, 2 h
Protocol: The expression from the PpilA promoter was measured using a miniTn7T-based insertion bearing a PpilA::gfp transcriptional fusion (AB5075/miniTn7T-zeo-pilA::gfpmut3). An AB5075/miniTn7T-zeo-gfpmut3 strain, bearing the empty miniTn7T backbone, was used as a control. […] Cultures were incubated for 2 h at 37° C., 180 rpm. Then, samples were withdrawn from the cultures, washed with PBS and eventually resuspended in PBS. Two technical repeats of each sample were allocated in a 96-well plate and their OD600 and GFP fluorescence (485 nm excitation, 535 nm emission) were measured. The fluorescence readings were normalised by their respective OD600 and the baseline fluorescence obtained from the empty transposon control was subtracted from that obtained with the strain bearing the PpilA::gfpmut3 the promoter fusion measurements.

[4] = system: P. aeruginosa PA14; experiment: Crystal violet biofilm formation assay / minimum biofilm inhibition concentration; format: cell-based, Pseudomonas aeruginosa
Protocol: as §1, §2, §3

[5] = system: A. baumannii AB5075; set-up: species or system Acinetobacter baumannii; settings: ace-K dressing applied for 1 hour
Protocol: In this model, porcine skin was either burnt or lacerated and the wound infected with A. baumannii AB5075 and left for 3.5 hours to allow a biofilm to form. The dressing was applied for 1 hour and viable cells were collected after treatment. […] Samples were tested in biological triplicate with technical quadruplets.
(8% (w/w)), potassium tetraborate (3% (w/w)), and PVA (3% ((w/w)) were added into a beaker and mixed with deionized water. The mixture was placed in a water bath and heated at 80° C. for three hours with watch glass while being swirled with a stirring rod every 1 hour. Once hydrogels had been obtained, they were placed in a petri dish with custom-made moulds.

[6] = system: A. baumannii gene expression; settings: |logFC|>1 and p<.05
Protocol: Cells were spun down and washed in RNAlater to preserve mRNA. RNA was isolated using a Qiagen RNAeasy Kit with column DNAase digestion. RNA integrity was determined using a Bioanalyzer. Samples were further processed for RNA sequencing on an Illumina MiSeq with 12 million reads per sample. Quality control and adapter trimming was performed with bcl2fastq.

[7] = system: E. coli
Source text: (§7) N=3 biological triplicate, each with technical triplicates).

[8] = system: Klebsiella pneumoniae
Source text: as §7

[9] = system: P. aeruginosa PA14; settings: established 18 hour biofilm, 8.85% ace-K, 24 hours
Protocol: (§4) Plates were incubated for 18 hours at 37° C. and 180 rpm to allow biofilms to form. Following incubation, growth medium was removed from the wells and biofilms were washed three times with 200 μL of sterile PBS to remove any unbound planktonic cells. […] Plates were incubated for a further 24 hours at 37° C. and 180 rpm. Following this treatment biofilms were stained with 0.1% crystal violet as detailed above. Reduction in biofilm was represented as a percentage reduction compared to the control.
(§5) To assess the ability of artificial sweeteners to disperse biofilms, overnight cultures were diluted in 96-well plates to OD600 0.5-0.1 in growth medium. Plates were incubated for 18 h at 37° C. and 180 rpm to allow biofilms to form. Following incubation growth medium was removed and wells washed three times with 200 μl of sterile PBS to remove any unattached cells. Fresh growth medium supplemented with artificial sweetener or an appropriate vehicle control was added to the wells. Plates were incubated for a further 24 h at 37° C. and 180 rpm. Following this treatment biofilms were stained with 0.1% crystal violet as detailed above. Biofilm dispersal was represented as a percentage reduction compared with the control.

[10] = system: A. baumannii AB5075; settings: established 18 hour biofilm, 8.85% ace-K, 24 hours
Protocol: as §4, §5

[11] = system: Stenotrophomonas maltophilia
[12] = system: P. aeruginosa PA14; experiment: Growth inhibition assay in nutrient medium (OD600); format: cell-based, Pseudomonas aeruginosa
[13] = system: A. baumannii
Source text: Motility is a central facet of bacterial virulence and facilitates bacterial dissemination to the blood stream or other sites within an infected host. […] To validate the gene expression data, we performed twitching assays at a range of different concentrations.

[14] = system: P. aeruginosa colony biofilms
[15] = system: A. baumannii cells; settings: live cell imaging over time
Source text: (§6) To visualise the localisation of these membrane bulges and to gain insight into the contents of the bulges, an E. coli MG1655 strain with labelled mCherry-Fis and CFP-FtsZ was used (FIG. 62CD). Fis is a small DNA-binding protein that binds to a large number of regions of the chromosome, allowing the visualisation of the […] in living cells. FtsZ is a component of the Z ring, showing future cell division sites.

[16] = system: E. coli NCTC 13476; settings: live cell imaging over time
Source text: as §6

[17] = system: A. baumannii AB5075; experiment: Growth inhibition assay in LB medium (OD600); format: cell-based, Acinetobacter baumannii
[18] = system: A. baumannii colony biofilms
[19] = system: Enterococcus faecalis; settings: […] ace-K versus LB control
[20] = system: Staphylococcus aureus; settings: […] ace-K versus LB control
[21] = system: Enterobacter cloacae
[22] = system: A. baumannii AB5075
[23] = 3% (w/v) sucralose, […] (w/v) ace-K, LB medium, 19 hours
[24] = LB with ace-K plus Mg2+ and Ca2+
[25] = LB with sweetener plus Mg2+ and Ca2+
[26] = submerged in 8.85% (w/v) ace-K solution for 1 hour
[27] = surgical gauze soaked in 8.85% ace-K, 1 hour, compared to water-soaked dressing
[28] = in the presence of divalent cations (CaCl2 2 mM and MgSO4 1 mM)

## CC1=CC(=O)[N-]S(=O)(=O)O1.[K+] [ace-K, potassium salt of 6-methyl-1,2,3-oxathiazine-4 (3H)-one 2,2-dioxide]
[1]
  nuclear dye uptake: significant increases
[2]
  concentration with significant impact on / inhibition of biofilm formation: 0.09%
[2]; [23]
  biofilm formation: significantly inhibit biofilm formation
[3]
  pilA expression (GFP fluorescence normalised by OD600): clear dose dependent response
[4]; [23]
  biofilm formation: significantly inhibit biofilm formation
[4]; 19 hours exposure
  concentration resulting in almost complete abolition of biofilm formation: 1.77%
[5]; burn model
  log reduction in viable cells versus the water control: 2.16 log
[5]; laceration model
  log reduction in viable cells versus the water control: 0.5 log
[6]
  number of genes significantly differentially expressed: 464 genes
[7]; [24]
  effect of Mg2+ and Ca2+ cation supplementation on the growth inhibitory effect: at least partially reverse
[7]; […] ace-K versus LB control
  growth in LB including ace-K: significantly inhibits the growth
[8]; [24]
  effect of Mg2+ and Ca2+ cation supplementation on the growth inhibitory effect: at least partially reverse
[8]; […] ace-K versus LB control
  growth in LB including ace-K: significantly inhibits the growth
[9]
  reduction of total biofilm biomass compared to the control: 69.7%
[10]
  reduction of total biofilm biomass compared to the control: 48.8%
[11]; [24]
  effect of Mg2+ and Ca2+ cation supplementation on the growth inhibitory effect: at least partially reverse
[11]; […] ace-K versus LB control
  growth in LB including ace-K: significantly inhibits the growth
[12]
  concentration showing significant / effective growth inhibition: ≥ 0.89%
[12]; [25]
  effect of Mg2+ and Ca2+ cation supplementation on the growth inhibitory effect: at least partially reverse
[12]; […] sweetener, 19 hours, 37° C.
  bacterial growth in the presence of sweetener: inhibit the growth
[12]; ace-K 0.09-7.08%
  concentration at which growth inhibition plateaus; no growth above: around 5%
[13]
  concentration with significant reduction in bacterial twitching motility: ≥ 0.33%
[13]; AB5075, ace-K
  twitching motility over increasing concentrations: dose-dependent decrease
[13]; strains AB0057 and BAA 747, ace-K
  twitching motility over increasing concentrations: dose-dependent decrease
[14]; [26]
  number of viable bacteria within the biofilm after ace-K wash: significant reduction
[14]; [27]
  bacteria numbers after ace-K augmented dressing: significant reductions
[15]
  cell morphology upon ace-K exposure: stop dividing and lose structural integrity, swelling in size rapidly
[16]
  cell morphology upon ace-K exposure: filamented, extending to many times their original size before eventually, forming characteristic membrane bulges and ultimately lysing
[17]
  concentration showing significant / effective growth inhibition: ≥ 0.89%
[17]; [25]
  effect of Mg2+ and Ca2+ cation supplementation on the growth inhibitory effect: at least partially reverse
[17]; […] sweetener, 19 hours, LB medium
  bacterial growth in the presence of sweetener: inhibit the growth
[17]; ace-K 0.09-7.08%
  concentration at which growth inhibition plateaus; no growth above: around 5%
[18]; [26]
  number of viable bacteria within the biofilm after ace-K wash: significant reduction
[18]; [27]
  bacteria numbers after ace-K augmented dressing: significant reductions
[19]
  growth in LB including ace-K: significantly inhibits the growth
[20]
  growth in LB including ace-K: minor reduction in growth in the presence of ace-K, but this was not significant
[21]; [24]
  effect of Mg2+ and Ca2+ cation supplementation on the growth inhibitory effect: at least partially reverse
[21]; […] ace-K versus LB control
  growth in LB including ace-K: significantly inhibits the growth
[22]; in the presence of cations when supplementing with ace-K
  cell viability: not affected
[22]; [28]
  concentration reaching transformation abolition: ≥ 0.66%
  concentration with significant drop in transformability: 0.33%
[22]; without added cations
  concentration at which transformation is completely abolished: ≥ 0.66%
